Assay [1] concerns Pcc. The settings on record: 48 h.
Assay [2] relates to Ech. The following applies: 48 h.
The test system of assay [3] is Pcc. Format: cell-based, Pectobacterium carotovorum subsp. carotovorum.
Assay [4] has as its system Xcc Xcc17. The settings on record: Table 4, rich medium, up to 32 μg/ml; for MIC: 48 h, no visible growth; for MBC: spotted on rich agar 48 h, no colony.
In assay [5] the test system is Atu C58C1. The settings on record: Table 4, rich medium, up to 32 μg/ml; for MIC: 48 h, no visible growth; for MBC: spotted on rich agar 48 h, no colony.

Where a SMILES comes first, the peptide text is derived from it. The star is where a group is joined. Myristoyl = CCCCCCCCCCCCCC(=O)*

As for Ac-WKKIKKIIKKIKKI-NH2 [pepI2], in assay [1], the MBC worked out at 2 µg/mL and the MIC was 2 µg/mL. In assay [2], this molecule had an MBC of 16 µg/mL and an MIC of 16 µg/mL.

In the case of Ac-WKKLKKLLKKLKKL-NH2 [pepD2], the “membranolytic effect (SYTOX Green staining)” value (“membranolytic effect” for short) in assay [3] was “significant membranolytic effect”. The figures for the minimal inhibitory concentration (MIC) in assay [4] and in assay [5] were 1 µg/mL and 2 µg/mL, respectively. The results for the MBC in assay [4], in assay [5] and in assay [1] were 1 µg/mL, 2 µg/mL and 16 µg/mL, respectively.

Turning to `CCCCCCCCCCCCCC(=O)N[C@@H](Cc1c[nH]c2ccccc12)C(=O)N[C@@H](CCCCN)C(=O)N[C@@H](CCCCN)C(=O)N[C@@H](CC(C)C)C(=O)N[C@@H](CCCCN)C(=O)N[C@@H](CCCCN)C(=O)N[C@@H](CC(C)C)C(=O)N[C@@H](CC(C)C)C(=O)N[C@@H](CCCCN)C(=O)N[C@@H](CCCCN)C(=O)N[C@@H](CC(C)C)C(=O)N[C@@H](CCCCN)C(=O)N[C@@H](CCCCN)C(=O)N[C@@H](CC(C)C)C(N)=O` [pepD2M] (Myristoyl-WKKLKKLLKKLKKL-NH2), the “membranolytic effect” value in assay [3] is “significant membranolytic effect”.

As to Ac-WKKLKKLLKKL-NH2 [pepD3], in assay [3], the “membranolytic effect” value is listed as “significant membranolytic effect”. The minimal inhibitory concentration (MIC) in assay [4] and in assay [5] was 2 µg/mL each time. In addition, the MBC stood at 2 µg/mL in assay [4], 2 µg/mL in assay [5] and 16 µg/mL in assay [1].

Usually MBC stands for the lowest tested concentration that kills the bacteria rather than only halting them. Read a high MBC as less potent killing. What is called MIC is the smallest concentration in the dilution series that meets the test's criterion for growth inhibition.
